Laboratory results from patent publication US6335398B1, “Super absorbent polymer composition” (priority 1994, dated 2002).

Assays:
[1] = pKCu, stability constant of the Cu2+ chelate by Cu ion electrode method; assay type: physicochemical
Experimental: The pKCu was obtained by the following procedures. A Cu ion electrode method was used (Orion pH/ion analyzer; Cu ion electrode). A 0.1M triethanolamine-HCl (pH 8) buffer solution was used.
First of all, standard copper ion buffer solutions [400, 320, 240, 160 or 80 ppm (reduced to Cu^2+)] were prepared using CuCl2.2H2O, and a calibration curve was prepared using a copper ion electrode.
Then, a sample weighing 0.1 g was dissolved in 100 ml of a buffer solution in a measuring flask. To the sample solution was added dropwise a 0.05M CuCl2.2H2O buffer solution (pH 8) from a burette in 0.6 ml portions, and the potential of the Cu ion electrode was measured. The titration was conducted until the potential exceeded the level corresponding to 400 ppm (reduced to Cu^2+). Blank measurements were also carried out. A free Cu ion concentration was calculated from the potential, and the calculated value was corrected for the change in amount of the liquid of the measurement system due to the titration. Assuming that addition of an equimolar amount of Cu to a sample produces a 1:1 (by mole) complex, pKCu can be obtained from formula 1:
Stability Constant KML=[ML]/([M][L])
[ML]: Concentration of metal/chelating agent complex
[M]: Concentration of free metal ion
[L]: Concentration of free chelating agent

[2] = Solubility of copper salt of chelating compound in physiological saline; conditions: stirred 30 minutes
[3] = log stability constant with Cu2+, 25° C., 0.1M triethanolamine-HCl pH 8

Compound	pKCu (25° C.) [1, 3]	Solubility of Cu Salt (25° C.) [2]	pKCu (25° C.) ([1]; pH 8)
Monooleyl Citrate	6.4	–	–
CC(C)c1cccc(O)c(=O)c1 [β-Thujaplicin, β-thujaplicin]	7.9	<0.0001 wt %	–
O=C(O)CN(CCN(CC(=O)O)CC(=O)O)CC(=O)O [EDTA, ethylenediaminetetraacetic acid, reference compound]	–	–	18.79
CC(C)c1ccc(O)c(=O)cc1 [γ-Thujaplicin, γ-thujaplicin]	7.9	–	–
Monooleyl Phosphate	3.3	–	–
O=P(O)(O)OP(=O)(O)OP(=O)(O)O [Sodium Tripolyphosphate, reference compound]	6.8	1 wt %	–
O=C([O-])CC(O)(CC(=O)[O-])C(=O)[O-].[Na+].[Na+].[Na+] [Trisodium Citrate, reference compound]	5.2	–	–
